Reference: ChEMBL document CHEMBL1201862, “PubChem BioAssay data set” (2004)
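Test compounds were applied to cells in 96-well plates for 48 hours at 5 doses. GI50: concentration for 50% inhibition of growth.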 Activity calls are given as the source filed them. No stated cut-off is given here; in the data, active = GI50 up to about 1.1 µM and inactive = higher.

What was measured:
Experiment in all cases: growth of human tumour cells (NCI), 48 h
[1] = system: SK-MEL-5
[2] = system: EKVX
[3] = system: CCRF-CEM
[4] = system: OVCAR-8
[5] = system: SF-539
[6] = system: MDA-MB-231
[7] = system: HCC 2998
[8] = system: OVCAR-3
[9] = system: MDA-N
[10] = system: SN12C
[11] = system: UACC-257
[12] = system: MDA-MB-435
[13] = system: COLO 205
[14] = system: HCT-15
[15] = system: UO-31
[16] = system: NCI/ADR-RES
[17] = system: 786-0
[18] = system: HOP-62
[19] = system: NCI-H460
[20] = system: HCT-116

| Compound | GI50 [1] | GI50 [2] | GI50 [3] | GI50 [4] | GI50 [5] | GI50 [6] | GI50 [7] | GI50 [8] | GI50 [9] | GI50 [10] | GI50 [11] | GI50 [12] | GI50 [13] | GI50 [14] | GI50 [15] | GI50 [16] | GI50 [17] | GI50 [18] | GI50 [19] | GI50 [20] |
| --- | --- | --- | --- | --- | --- | --- | --- | --- | --- | --- | --- | --- | --- | --- | --- | --- | --- | --- | --- | --- |
| OCC1CCCCN1Cc1nc2cc(Cl)ccc2[nH]1 (stereo not given) | > 100 µM (inactive) | > 100 µM (inactive) | > 100 µM (inactive) | > 100 µM (inactive) | > 100 µM (inactive) | > 100 µM (inactive) | > 100 µM (inactive) | > 100 µM (inactive) | > 100 µM (inactive) | > 100 µM (inactive) | > 100 µM (inactive) | > 100 µM (inactive) | > 100 µM (inactive) | > 100 µM | > 100 µM (inactive) | > 100 µM (inactive) | > 100 µM (inactive) | > 100 µM (inactive) | > 100 µM (inactive) | > 100 µM (inactive) |
| O=C(Cc1nc2ncccc2[nH]c1=O)c1c[nH]c2ccccc12 | 23.1 µM (inactive) | 21.4 µM (inactive) | 13.4 µM (inactive) | 23.4 µM (inactive) | 16.6 µM (inactive) | 16.7 µM (inactive) | 19.8 µM (inactive) | 18 µM (inactive) | 19.7 µM (inactive) | 18.2 µM (inactive) | 19.5 µM (inactive) | 15.9 µM (inactive) | 16.3 µM (inactive) | 31.6 µM | 17.7 µM (inactive) | 29.4 µM (inactive) | 18.2 µM (inactive) | 18.7 µM (inactive) | 17.3 µM (inactive) | 22.2 µM (inactive) |
| Cc1ccc2cc3c(ccc4ccccc43)c3c2c1CC3 [3-METHYLCHOLANTHRENE] | > 100 µM (inactive) | 75.5 µM (inactive) | > 100 µM (inactive) | > 100 µM (inactive) | > 100 µM (inactive) | > 100 µM (inactive) | > 100 µM (inactive) | > 100 µM (inactive) | > 100 µM (inactive) | > 100 µM (inactive) | > 100 µM (inactive) | > 100 µM (inactive) | > 100 µM (inactive) | 9.82 µM | > 100 µM (inactive) | > 100 µM (inactive) | > 100 µM (inactive) | > 100 µM (inactive) | > 100 µM (inactive) | > 100 µM (inactive) |
| Cc1cc2c(s1)C(N)CC2=O (stereo not given) | > 100 µM (inactive) | > 100 µM (inactive) | > 100 µM (inactive) | > 100 µM (inactive) | > 100 µM (inactive) | > 100 µM (inactive) | > 100 µM (inactive) | > 100 µM (inactive) | > 100 µM (inactive) | > 100 µM (inactive) | > 100 µM (inactive) | > 100 µM (inactive) | > 100 µM (inactive) | > 100 µM | > 100 µM (inactive) | > 100 µM (inactive) | > 100 µM (inactive) | > 100 µM (inactive) | > 100 µM (inactive) | > 100 µM (inactive) |
| O=C1CSC(c2ccccc2)N1c1ccc(-n2c(-c3ccccc3)nc3ccccc3c2=O)cc1 (stereo not given) | 47.4 µM (inactive) | > 75.7 µM (inactive) | 36.3 µM (inactive) | 61.7 µM (inactive) | 65.2 µM (inactive) | 47.2 µM (inactive) | > 100 µM (inactive) | 64.1 µM (inactive) | > 79.1 µM (inactive) | 99.3 µM (inactive) | > 100 µM (inactive) | 63.4 µM (inactive) | 54.2 µM (inactive) | 46.9 µM | 28.4 µM (inactive) | 64.6 µM (inactive) | > 92.9 µM (inactive) | > 100 µM (inactive) | 46.3 µM (inactive) | 39.2 µM (inactive) |
| CCCCCCCCCCCCCCCC(=O)OCC1OC(n2ccc(N)nc2=O)C(O)C1O (stereo not given) | 18.5 µM (inactive) | > 69 µM (inactive) | 0.0106 µM (active) | 2.39 µM (inactive) | > 100 µM (inactive) | > 100 µM (inactive) | 8.47 µM (inactive) | > 28.2 µM (inactive) | > 100 µM (inactive) | 9.95 µM (inactive) | 33.4 µM (inactive) | 6.75 µM (inactive) | 15 µM (inactive) | > 42.2 µM | 1.67 µM (inactive) | > 48.3 µM (inactive) | 4.29 µM (inactive) | 0.403 µM (active) | 0.401 µM (active) | 2.22 µM (inactive) |
| CCOC(=O)CCN1C(=O)c2ccc(NC(=O)C(=O)O)cc2S1(=O)=O | > 100 µM (inactive) | > 100 µM (inactive) | > 100 µM (inactive) | > 100 µM (inactive) | > 100 µM (inactive) | > 100 µM (inactive) | > 100 µM (inactive) | > 100 µM (inactive) | > 100 µM (inactive) | > 100 µM (inactive) | > 100 µM (inactive) | > 100 µM (inactive) | > 100 µM (inactive) | > 100 µM | > 100 µM (inactive) | > 100 µM (inactive) | > 100 µM (inactive) | > 100 µM (inactive) | > 100 µM (inactive) | > 100 µM (inactive) |
| O=c1c(Br)c(-c2ccccc2)[s+]([O-])c2ccccc12 (stereo not given) | 11.5 µM (inactive) | 16.4 µM (inactive) | 0.861 µM (active) | 4.6 µM (inactive) | 3.01 µM (inactive) | 14.8 µM (inactive) | 14.6 µM (inactive) | 10.4 µM (inactive) | 6 µM (inactive) | 15.6 µM (inactive) | 12.9 µM (inactive) | 4.5 µM (inactive) | 1.89 µM (inactive) | 3.32 µM | 12 µM (inactive) | 16.7 µM (inactive) | 2.7 µM (inactive) | 2.43 µM (inactive) | 17.9 µM (inactive) | 5.9 µM (inactive) |
